The values that follow come from ChEMBL document CHEMBL1152872, “Discovery of N-{[1-(propylsulfonyl)-4-pyridin-2-ylpiperidin-4-yl]methyl}benzamides as novel, selective and potent GlyT1 inhibitors” (Bioorg Med Chem Lett, 2009).

Test [1] deals with T1, Sodium- and chloride-dependent glycine transporter 1 (Homo sapiens, UniProt P48067).
T1 sequence (P48067 whole entry): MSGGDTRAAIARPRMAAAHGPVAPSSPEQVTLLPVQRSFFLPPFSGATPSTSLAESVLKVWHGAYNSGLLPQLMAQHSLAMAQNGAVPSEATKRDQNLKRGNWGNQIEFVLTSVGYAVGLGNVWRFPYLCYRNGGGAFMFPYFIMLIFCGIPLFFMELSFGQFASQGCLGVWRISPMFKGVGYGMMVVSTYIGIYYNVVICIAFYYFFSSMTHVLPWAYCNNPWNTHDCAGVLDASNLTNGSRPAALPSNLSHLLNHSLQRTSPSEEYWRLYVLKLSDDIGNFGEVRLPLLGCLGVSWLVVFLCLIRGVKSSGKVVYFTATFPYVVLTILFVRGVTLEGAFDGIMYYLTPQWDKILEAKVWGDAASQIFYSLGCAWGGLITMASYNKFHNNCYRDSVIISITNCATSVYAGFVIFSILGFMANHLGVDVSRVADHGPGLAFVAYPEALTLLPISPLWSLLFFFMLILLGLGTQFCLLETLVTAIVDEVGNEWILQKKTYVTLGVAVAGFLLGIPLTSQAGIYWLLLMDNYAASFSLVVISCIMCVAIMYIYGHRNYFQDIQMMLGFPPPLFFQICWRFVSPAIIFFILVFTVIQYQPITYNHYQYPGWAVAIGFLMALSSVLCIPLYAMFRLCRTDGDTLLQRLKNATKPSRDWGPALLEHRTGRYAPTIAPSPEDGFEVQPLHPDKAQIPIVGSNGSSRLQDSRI
The test is described as follows: Inhibition of human glycine transporter 1.

In test [2] the target is T2, Sodium- and chloride-dependent glycine transporter 2 (Homo sapiens, UniProt Q9Y345).
T2 sequence (Q9Y345 whole entry): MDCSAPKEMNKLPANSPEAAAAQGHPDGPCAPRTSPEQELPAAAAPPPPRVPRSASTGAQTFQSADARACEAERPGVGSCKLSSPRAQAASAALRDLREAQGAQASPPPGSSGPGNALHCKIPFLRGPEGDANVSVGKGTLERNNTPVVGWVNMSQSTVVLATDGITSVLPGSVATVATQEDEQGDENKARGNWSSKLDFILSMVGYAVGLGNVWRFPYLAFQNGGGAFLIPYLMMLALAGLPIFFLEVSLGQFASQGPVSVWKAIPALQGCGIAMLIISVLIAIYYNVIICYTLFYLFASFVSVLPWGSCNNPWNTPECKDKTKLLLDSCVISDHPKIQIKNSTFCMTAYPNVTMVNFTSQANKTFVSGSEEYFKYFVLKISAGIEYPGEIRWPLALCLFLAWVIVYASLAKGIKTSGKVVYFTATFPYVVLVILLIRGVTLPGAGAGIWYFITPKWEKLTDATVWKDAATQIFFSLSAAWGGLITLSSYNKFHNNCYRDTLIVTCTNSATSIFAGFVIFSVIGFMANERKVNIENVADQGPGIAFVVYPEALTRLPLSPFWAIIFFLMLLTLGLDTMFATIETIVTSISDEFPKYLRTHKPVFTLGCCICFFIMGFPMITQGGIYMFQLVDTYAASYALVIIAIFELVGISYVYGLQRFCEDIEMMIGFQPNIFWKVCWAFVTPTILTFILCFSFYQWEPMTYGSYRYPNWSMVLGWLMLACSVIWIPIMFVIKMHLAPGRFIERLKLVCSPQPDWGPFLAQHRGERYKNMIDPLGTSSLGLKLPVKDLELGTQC
In words: Inhibition of glycine transporter 2.

Test [3] concerns the target T3, Sodium- and chloride-dependent taurine transporter (Homo sapiens, UniProt P31641).
T3 sequence (P31641 whole entry): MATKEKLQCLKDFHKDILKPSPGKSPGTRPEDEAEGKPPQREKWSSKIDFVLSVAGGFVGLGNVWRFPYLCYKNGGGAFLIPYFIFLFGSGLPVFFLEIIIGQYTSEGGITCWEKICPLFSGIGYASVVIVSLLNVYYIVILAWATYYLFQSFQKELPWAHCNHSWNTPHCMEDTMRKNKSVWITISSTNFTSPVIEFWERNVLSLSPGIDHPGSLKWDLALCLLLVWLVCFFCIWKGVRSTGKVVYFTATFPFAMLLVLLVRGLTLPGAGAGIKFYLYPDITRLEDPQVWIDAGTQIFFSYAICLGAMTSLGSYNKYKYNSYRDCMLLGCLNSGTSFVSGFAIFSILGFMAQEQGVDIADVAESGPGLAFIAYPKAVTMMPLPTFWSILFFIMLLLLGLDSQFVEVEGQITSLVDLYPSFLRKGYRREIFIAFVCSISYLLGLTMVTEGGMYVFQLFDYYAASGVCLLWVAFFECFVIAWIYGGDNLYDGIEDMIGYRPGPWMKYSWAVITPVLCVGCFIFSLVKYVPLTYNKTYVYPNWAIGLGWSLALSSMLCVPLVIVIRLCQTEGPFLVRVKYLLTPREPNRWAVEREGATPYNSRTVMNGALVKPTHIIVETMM
In words: Inhibition of taurine transporter. The test is classed as single protein.

For test [4], the target named is T1, Sodium- and chloride-dependent glycine transporter 1. The test is described as follows: Inhibition of glycine transporter 1 by HTS assay.

`CCCS(=O)(=O)N1CCC(c2ccccn2)([C@@H](C)NC(=O)c2cc(F)cc(F)c2Cl)CC1` gave an IC50 in test [1] of 576 nM.

For `CCCS(=O)(=O)N1CCC(CNC(=O)c2ccccc2Cl)(c2cccc(C)n2)CC1`, the values for the IC50 in test [1], in test [2] and in test [3] were 3 nM, over 30000 nM and over 30000 nM, respectively.

On to `CCCS(=O)(=O)N1CCC(CNC(=O)c2ccccc2)(c2ccccn2)CC1`, for which the IC50 was 107 nM in test [1], over 30000 nM in test [2] and over 30000 nM in test [3].

Consider `CCCS(=O)(=O)N1CCC(CNC(=O)c2ccccc2C(F)(F)F)(c2ccccn2)CC1`, for which the IC50 is 31.3 nM in test [1], over 30000 nM in test [2] and over 30000 nM in test [3].

In turn, `CCCS(=O)(=O)N1CCC(CNC(=O)c2ccc(Cl)cc2Cl)(c2cccnc2)CC1` had an IC50 in test [1] of 69.3 nM.

On to `CCCS(=O)(=O)N1CCC(CNC(=O)c2ccccc2OC(F)(F)F)(C2CCCCN2C)CC1` (stereo not drawn), for which inhibition in test [1] was half-maximal at 21.2 nM (IC50).

In test [1], `CCCS(=O)(=O)N1CCC(CNC(=O)c2ccccc2C)(C2CCCCN2C)CC1` (stereo not drawn) had an IC50 of 148 nM.

As for `CCCS(=O)(=O)N1CCC(CNC(=O)c2ccc(Cl)cc2Cl)(c2cccc(OC)n2)CC1`, the IC50 in test [1] is 7.4 nM; in test [2] it was over 30000 nM; in test [3], over 30000 nM.

Regarding `CCCS(=O)(=O)N1CCC(CNC(=O)c2ccc(Cl)cc2Cl)(c2cccc(N3CCOCC3)n2)CC1`, the IC50 in test [1] stood at 412 nM.

For `CCCS(=O)(=O)N1CCC(CNC(=O)c2ccccc2F)(c2ccccn2)CC1`, the IC50 in test [1] was 49.4 nM; in test [2], over 30000 nM; in test [3], over 30000 nM.

As to `CCCS(=O)(=O)N1CCC(CNC(=O)c2ccccc2Cl)(c2ccccn2)CC1`, the IC50 in test [1] is 11.9 nM; in test [2], over 30000 nM; in test [3], over 30000 nM.

`CCCS(=O)(=O)N1CCC(CNC(=O)c2ccccc2Cl)(C2CCCCN2C)CC1` (stereo not drawn) returned an IC50 in test [1] of 58.9 nM.

`CCCS(=O)(=O)N1CCC(CNC(=O)c2ccccc2)(C2CCCCN2C)CC1` (stereo not drawn) returned an IC50 in test [1] of 3310 nM.

On to `CCCS(=O)(=O)N1CCC(CNC(=O)c2ccccc2)(c2cccc(OC)n2)CC1`, for which the IC50 in test [1] was 48.3 nM; in test [2] it was over 30000 nM; in test [3], over 30000 nM.

Take `CCCS(=O)(=O)N1CCC(CNC(=O)c2ccccc2Cl)(c2cccc(OC)n2)CC1`: the results for the IC50 in test [1], in test [2] and in test [3] were 6.9 nM, over 30000 nM and over 30000 nM, respectively.

`CCCS(=O)(=O)N1CCC(c2ccccc2)([C@H](C)NC(=O)c2c(N)cccc2Cl)CC1`: the IC50 in test [4] came out at 2.6 nM.

In the case of `CCCS(=O)(=O)N1CCC(CNC(=O)c2ccc(Cl)cc2Cl)(C2CCCCN2C)CC1` (stereo not drawn), in test [1], the IC50 was found to be 9.5 nM.

For `CCCS(=O)(=O)N1CCC(CNC(=O)c2ccc(Cl)cc2Cl)(c2cc(C)ccn2)CC1`, the values for the IC50 in test [1], in test [2] and in test [3] were 3.5 nM, over 30000 nM and over 30000 nM, respectively.

On to `CCCS(=O)(=O)N1CCC(CNC(=O)c2ccc(Cl)c(Cl)c2)(c2ccccn2)CC1`, for which the IC50 was 131 nM in test [1], over 30000 nM in test [2] and over 30000 nM in test [3].

As to `CCCS(=O)(=O)N1CCC(CNC(=O)c2ccccc2OC(F)(F)F)(c2ccccn2)CC1`, the IC50 was 19.4 nM in test [1], over 30000 nM in test [2] and over 30000 nM in test [3].

Regarding `CCCS(=O)(=O)N1CCC(CNC(=O)c2ccc(Cl)cc2Cl)(c2ccncc2)CC1`, in test [1], the half-maximal inhibitory concentration (IC50) was determined as 79.3 nM.

As to `CCCS(=O)(=O)N1CCC(CNC(=O)c2ccccc2Cl)(c2cccc(N3CCOCC3)n2)CC1`, the IC50 in test [1] is 482 nM.

Regarding `CCCS(=O)(=O)N1CCC(CNC(=O)c2ccccc2Cl)(c2cc(C)ccn2)CC1`, the results for the IC50 in test [1], in test [2] and in test [3] were 38.3 nM, over 30000 nM and over 30000 nM, respectively.

`CCCS(=O)(=O)N1CCC(CNC(=O)c2c(Cl)cccc2Cl)(c2ccccn2)CC1`: the IC50 in test [1] is 6.6 nM; in test [2] it was over 30000 nM; in test [3], over 30000 nM.

For `CCCS(=O)(=O)N1CCC(CNC(=O)c2ccc(Cl)cc2Cl)(c2ccccn2)CC1`, the IC50 in test [1] was 4.4 nM; in test [2], over 30000 nM; in test [3], over 30000 nM.

In test [1], `CCCS(=O)(=O)N1CCC(CNC(=O)c2ccccc2)(c2cccc(N3CCOCC3)n2)CC1` came in with an IC50 of over 5000 nM.

The compound `CCCS(=O)(=O)N1CCC(c2ccccn2)([C@@H](C)NC(=O)c2ccc(Cl)cc2Cl)CC1` showed a concentration for half-maximal inhibition (IC50) in test [1] of 661 nM.

For `CCCS(=O)(=O)N1CCC(c2ccccn2)([C@H](C)NC(=O)c2ccc(Cl)cc2Cl)CC1`, the IC50 in test [1] is 3 nM; in test [2] it was over 30000 nM; in test [3] it was over 30000 nM.

Consider `CCCS(=O)(=O)N1CCC(CNC(=O)c2ccc(Cl)cc2)(c2ccccn2)CC1`, for which the concentration for half-maximal inhibition (IC50) in test [1] was 103 nM; in test [2] it was over 30000 nM; in test [3], over 30000 nM.

As to `CCCS(=O)(=O)N1CCC(CNC(=O)c2cc(F)cc(F)c2Cl)(C2CCCCN2C)CC1` (stereo not drawn), in test [1], half-maximal inhibition (IC50) was put at 43.1 nM.

For the compound `CCCS(=O)(=O)N1CCC(c2ccccn2)([C@H](C)NC(=O)c2cc(F)cc(F)c2Cl)CC1`, the IC50 in test [1] is 4 nM; in test [2] it was over 30000 nM; in test [3] it was over 30000 nM.

Regarding `CCCS(=O)(=O)N1CCC(CNC(=O)c2cccc(Cl)c2)(c2ccccn2)CC1`, the figures for the IC50 in test [1], in test [2] and in test [3] were 517 nM, over 30000 nM and over 30000 nM, respectively.

On to `CCCS(=O)(=O)N1CCC(CNC(=O)c2ccc(Cl)cc2Cl)(c2cccc(C)n2)CC1`, for which the half-inhibitory concentration (IC50) in test [1] is 2.5 nM; in test [2], over 30000 nM; in test [3], over 30000 nM.

In test [1], `CCCS(=O)(=O)N1CCC(c2ccccn2)([C@@H](C)NC(=O)c2ccccc2OC(F)(F)F)CC1` returned an IC50 of 2590 nM.

For `CCCS(=O)(=O)N1CCC(c2ccccn2)([C@H](C)NC(=O)c2ccccc2OC(F)(F)F)CC1`, the IC50 in test [1] was 17.7 nM; in test [2], over 30000 nM; in test [3], over 30000 nM.

Turning to `CCCS(=O)(=O)N1CCC(CNC(=O)c2cccc(C)c2)(c2ccccn2)CC1`, the values for the IC50 in test [1], in test [2] and in test [3] were 833 nM, over 30000 nM and over 30000 nM, respectively.

For `CCCS(=O)(=O)N1CCC(CNC(=O)c2ccccc2C)(c2ccccn2)CC1`, the IC50 in test [1] is 19.5 nM; in test [2], over 30000 nM; in test [3] it was over 30000 nM.

Consider `CCCS(=O)(=O)N1CCC(CNC(=O)c2ccccc2)(c2cc(C)ccn2)CC1`, for which the values for the IC50 in test [1], in test [2] and in test [3] were 129 nM, over 30000 nM and over 30000 nM, respectively.

On to `CCCS(=O)(=O)N1CCC(CNC(=O)c2c(N)cccc2Cl)(c2ccccn2)CC1`, for which the IC50 is 6.9 nM in test [1], over 30000 nM in test [2] and over 30000 nM in test [3].

`CCCS(=O)(=O)N1CCC(CNC(=O)c2c(F)ccc(F)c2Cl)(c2ccccn2)CC1`: the IC50 in test [1] is 5.7 nM; in test [2], over 30000 nM; in test [3], over 30000 nM.

Consider `CCCS(=O)(=O)N1CCC(CNC(=O)c2ccccc2)(c2cccc(C)n2)CC1`, for which the values for the IC50 in test [1], in test [2] and in test [3] were 54.7 nM, over 30000 nM and over 30000 nM, respectively.
